2 molecules from ChEMBL document CHEMBL3400030, “Synthesis and biological evaluation of nonionic substrate mimics of UDP-Galp as candidate inhibitors of UDP galactopyranose mutase (UGM)” (Bioorg Med Chem Lett, 2015) can be followed below.

Structures are written as SMILES.

For experiment [1], the system named is Mycobacterium tuberculosis. In words: Inhibition of Mycobacterium tuberculosis UGM assessed as conversion of UDP-Galf into UDP-Galp at 500 uM by HPLC method. Also noted: scale not given: the % may be the effect or the level left.
Experiment [2] has as its system Mycobacterium tuberculosis. The experiment can be described thus: Inhibition of Mycobacterium tuberculosis UGM assessed as inhibition of conversion of UDP-Galf into UDP-Galp at 500 uM by HPLC method.

By inhibition is commonly meant the share of the control response that was lost under treatment. For `O=c1ccn(C[C@@H](O)[C@@H](O)[C@H](O)[C@H](CO)O[C@@H]2O[C@H](CO)[C@H](O)[C@H](O)[C@H]2O)c(=O)[nH]1`, the Activity in experiment [1] was determined as 39%. Moreover, the inhibition in experiment [2] was 28%.
The corresponding values for `O=c1ccn(C[C@@H](O)[C@@H](O)[C@H](O)[C@H](CO)O[C@H]2O[C@H](CO)[C@H](O)[C@H](O)[C@H]2O)c(=O)[nH]1` are 47% and 30%.
